Data as given in US11806314B2, “PDE5 inhibitor powder formulations and methods relating thereto” (Respira Therapeutics, Inc., priority 2013, dated 2023).
Structures can show the parent of a compound that is named as a salt.

What was measured:
Assay type in all cases: physicochemical
[1] = Dynamic vapor sorption (DVS) moisture sorption and desorption; conditions: 20° C.; for moisture sorption and desorption behavior: micronized, 0-80% P/Po
Method: DVS Analysis: No DVS results of these APIs have been previously reported. Moisture sorption and desorption behavior was assessed using a DVS-Advantage 1 (Surface Measurement Systems, Allentown, Pa.). Experimental parameters: sample % P/Po in a range of 0-80; 5% P/Po increment, equilibrium criteria, both sorption and desorption. Experiments conducted at 20° C.

[2] = Intrinsic stability testing (acid, base, oxidative degradation in solution) by HPLC; conditions: acidic, basic and oxidative conditions per ICH Guidance
Method: Method: VarHCl·3H2O, HPLC grade water, 36.5% HCl, NaOH pellets, 6% H2O2 were all purchased, and 1N HCl and 1N NaOH were prepared in house. Intrinsic stability testing was performed according to International Conference on Harmonization (ICH) Guidance for Industry Q1A(R2) Stability Testing of New Drug Substances and Products (November 2003, Rev. 2). Briefly, the compound was tested for acid hydrolysis (1N HCl) and base hydrolysis (1N NaOH) at r.t. for 48 hr and at 60° C. for 4 hr. Oxidation assessment (6% H2O2) was performed at r.t. for 48 hr. The stability of VarHCl·3H2O in solution was assessed using HPLC analysis as described above in Example 1, Section A.

[3] = Aerosol performance, Next Generation Impactor (NGI) with powder deaggregator and RS01 capsule piercing mechanism; conditions: pure drug (100% API)
Description: There are several inertia sampling apparatuses that can be used to assess aerosol performance of dry powder formulations. (<601> Aerosols, Nasal Sprays, Metered-Dose Inhalers, and Dry Powder Inhalers Monograph, in USP 29-NF 24 The United States Pharmacopoeia and The National Formulary: The Official Compendia of Standards. 2006, The United States Pharmacopeial Convention, Inc.: Rockville, Md. p. 2617-2636 (“USP<601>”).) These apparatus classify aerosol particles on the basis of the particles' aerodynamic diameter. Each stage of the impactor includes a single or series of nozzles with specific cutoff size. Particles are entrained into the apparatus. Those having sufficient inertia will impact on that particular stage collection plate, while smaller particles with insufficient inertia will remain entrained in the airstream and pass to the next stage where the process is repeated. The aerodynamic size distribution of API can be assessed by collecting the deposited API mass and the ED %, RF %, FPF % and MMAD (μm) can be calculated from the API deposition pattern. The emitted dose fraction (ED (%); Eq. 4) is determined as the percentage powder mass emitted from the initial dosing chamber/capsule relative to the total dose in capsules (nominal dose) (TD). Emitted dose (ED) includes the sum of the API mass […] deposited on the device stages. Fine particle fraction (FPF (%); Eq. 5) is expressed as a percentage of fine particle dose (FPD) below a certain aerodynamic cutoff size to ED. Respirable fraction (RF (%); Eq. 6) is defined as the percentage of FPD to total dose (TD).
Formulation aerosol performance tests were carried out using a powder deaggregator modified from that described in U.S. Patent Publication Nos. 2013/0340754 and 2013/0340747 combined with an off-the-shelf RS01 dry powder inhaler capsule piercing mechanism (Plastiape, IT) feeding method. […] The experiments were conducted at an airflow rate that gave a system pressure drop of 2 kPa (about 40 L/min, 4 L inhalation volume duration: 5.5 sec) or 4 kPa (about 60 L/min, 4 L inhalation volume duration: 3.9 sec).
Packaging: The blends were packaged into size 3 HPMC capsules. Nominal dose amounts of 3 mg were prepared for each formulation; 10 mg nominal doses were also prepared for pure drug VarBase and Var(HCl)2·xH2O formulations.
Methods: Two inertial sampling systems were used to assess aerosol performance: (1) a Next Generation Impactor® (“NGI”) (Copley Scientific, Shoreview, Minn.), and (2) a Twin Stage Liquid Impinge (“TSLI”) (Copley Scientific, Shoreview, Minn.). Aerosol performance of the VarHCl·xH2O formulation was assessed using the TSLI device, while the other formulations were all assessed using the NGI device. The NGI experiments were carried out using methods in general agreement with the USP<601>, and the TSLI experiments were carried using methods in general agreement with the British Pharmacopoeia, 2007, Vol. IV, Appendix XIIF. A291 Aerodynamic assessment of fine particles, fine particle dose and particle size distribution. The NGI experiments were run at a controlled airflow rate that gave a pressure drop of either 2 or 4 kPa across the device. Specifically, at Q=61.4 L/min with a delay time of 3.9 sec; and at Q=43.4 L/min with a delay time of 5.5 sec. Before the aerosol testing, the NGI collection plates were coated with suitable coating. Mass median aerodynamic diameter (MMAD) of aerosol particles distribution was determined based on a log-probability distribution (API particle size versus API deposition percentage) obtained from the NGI data. The TSLI experiments were run at Q=60 L/min, 4 sec to achieve ΔP≈4 kPa, with a cutoff size of 6.4 μm.

[4] = Particle size analysis of micronized APIs by laser diffraction; conditions: micronized (jet-milled), dispersed in mineral spirit
Method: Var(HCl)2·xH2O, VarBase, and VarHCl·3H2O were purchased and then micronized using a commercial dry jet-miller. The jet milling was achieved using typical jet milling conditions and a single milling process. As shown in Example 5, micronization leads to partial dehydration of VarHCl·3H2O. As such, following micronization and absent rehydration, the compound is designated as VarHCl·xH2O.
The APIs were dispersed in mineral spirit, and particle size analysis was performed by laser diffraction using a Microtrac×100 Particle Size Analyzer. Particle size span was calculated as
[formula] where Dv0.1, Dv0.5 and Dv0.9 are 10%, 50% and 90% of the volume size distributed below the respective values.

[5] = 3 mg dose, dihydrochloride hydrate

CCCc1nc(C)c2c(=O)[nH]c(-c3cc(S(=O)(=O)N4CCN(CC)CC4)ccc3OCC)nn12 [VarHCl·3H2O, vardenafil hydrochloride trihydrate]
relative humidity below which water loss occurred ([1]; desorption phase): lower than 15% | humidity range in which the trihydrate form is stable / maintained ([1]; desorption phase, hydrochloride trihydrate): 10-80 % RH | relative humidity up to which integrity is maintained (not reaching deliquescence) ([1]; sorption phase): up to 80 % RH | extent of degradation [2]: significant in basic and oxidative conditions

CCCc1nc(C)c2c(=O)[nH]c(-c3cc(S(=O)(=O)N4CCN(CC)CC4)ccc3OCC)nn12 [VarHCl, vardenafil hydrochloride]
moisture sorption and desorption behavior ([1]; hydrochloride): highly hygroscopic | relative humidity at which a first water molecule bound to form a monohydrate ([1]; sorption phase): 5%

CCCc1nc(C)c2c(=O)[nH]c(-c3cc(S(=O)(=O)N4CCN(CC)CC4)ccc3OCC)nn12 [Var(HCl)2•xH2O (rehydrated), dihydrochloride hydrate]
ED(%) [3, 5]: 71.4% | FPF(ED)(%) [3, 5]: 63.6% | MMAD [3, 5]: 1.37 μm | RF(%) [3, 5]: 45.4%

CCCc1nc(C)c2c(=O)[nH]c(-c3cc(S(=O)(=O)N4CCN(CC)CC4)ccc3OCC)nn12 [VarBase, 2-[2-ethoxy-5-(4-ethylpiperazin-1-yl)sulfonylphenyl]-5-methyl-7-propyl-1H-imidazo[5,1-i][1,2,4]triazin-4-one]
ED(%) ([3]; 3 mg dose): 81.8% | FPF(ED)(%) ([3]; 3 mg dose): 56.0% | MMAD ([3]; 3 mg dose): 1.32 μm | RF(%) ([3]; 3 mg dose): 45.8% | ED(%) ([3]; 10 mg dose): 64.2% | FPF(ED)(%) ([3]; 10 mg dose): 37.2% | MMAD ([3]; 10 mg dose): 1.51 μm | RF(%) ([3]; 10 mg dose): 23.9% | moisture sorption and desorption behavior [1]: no hydration occurred | DV50 [4]: 1.557 μm | Span [4]: 1.557
